Source: patent US8293786B2 (Alltranz Inc., priority 2007, dated 2012)

Test system: human abdominal skin
Experiment: In vitro human skin permeation and skin disposition, flow-through diffusion cells (Examples 2, 2A, 2B)
Format: in vitro ADME
Details: for Flux enhancement: total cannabidiol versus cannabidiol
How it was run: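 Dermatomed (~200 μm) frozen human abdominal skin was mounted in flow-through cells at 32° C (0.95 cm^2), stratum corneum to donor. Donors were 0.10 mL 45:4:1 PG:H2O:IPM solution or 50 μL gel; receiver was 40% PEG 400 (HEPES-Hanks pH 7.4 or aqueous) with gentamicin at 0.8 mL/h. Samples were taken every 3 h for 24-42 h; skin accumulation was expressed as μmol/g wet tissue.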

[1] = Table 19, gel formulation, 40% aqueous PEG 400 receiver fluid, as applied compound (CBD or intact prodrug)
[2] = Table 19, gel formulation, 40% aqueous PEG 400 receiver fluid, mono-prodrug (ALL00150) from applied di-prodrug
[3] = Table 19, gel formulation, 40% aqueous PEG 400 receiver fluid, prodrug applied, as total cannabidiol equivalents
[4] = Table 18, 90:8:2 PG:H2O:IPM donor solution, 40% aqueous PEG 400 receiver fluid, CBD from applied prodrug
[5] = Table 18, 90:8:2 PG:H2O:IPM donor solution, 40% aqueous PEG 400 receiver fluid, mono-prodrug from applied di-prodrug
[6] = Table 18, 90:8:2 PG:H2O:IPM donor solution, 40% aqueous PEG 400 receiver fluid, prodrug applied, as total cannabidiol equivalents
[7] = Table 16, 90:8:2 PG:H2O:IPM donor solution, 60/40 Hanks'/PEG 400 receiver fluid, as applied compound (CBD or intact prodrug)
[8] = Table 17, 90:8:2 PG:H2O:IPM donor solution, 40% aqueous PEG 400 receiver fluid, as applied compound (CBD or intact prodrug)
[9] = Table 18, 90:8:2 PG:H2O:IPM donor solution, 40% aqueous PEG 400 receiver fluid, as applied compound (CBD or intact prodrug)
[10] = Table 21, gel formulation, 40% aqueous PEG 400 receiver fluid, as applied compound (CBD or intact prodrug)
[11] = Table 23, gel formulation, 40% aqueous PEG 400 receiver fluid, as applied compound (CBD or intact prodrug)

C=C(C)[C@@H]1CCC(C)=C[C@H]1c1c(OC(=O)CCN(C)C)cc(CCCCC)cc1OC(=O)CCN(C)C [ALL00101, CBD bis(3-(dimethylamino)propionate)]
24 h skin conc (Table 19, gel formulation, 40% aqueous PEG 400 receiver fluid, CBD from applied prodrug): 13.2 ± 10.4 µmol/g
24 h skin conc [1]: 0.8 ± 0.6 µmol/g
24 h cumulative amt [2]: 8.4 ± 1.3 nmol
24 h skin conc [2]: 34.7 ± 27.7 µmol/g
Flux [2]: 0.4 ± 0.03 nmol/cm^2/h
Lag time [2]: 2.9 ± 1.9 h
24 h cumulative amt [3]: 8.4 ± 1.3 nmol
24 h skin conc [3]: 48.7 ± 38.6 µmol/g
Flux [3]: 0.4 ± 0.03 nmol/cm^2/h
Lag time [3]: 2.9 ± 1.9 h
Flux enhancement (Table 19, gel formulation, 40% aqueous PEG 400 receiver fluid): 0.52
detected in the skin as (in gel formulation): trace small amounts of intact prodrug but mostly as mono-substituted prodrug, ALL00150, and cannabidiol
flux compared to cannabidiol (in gel formulation): did not increase the flux
lag time compared to cannabidiol (in gel formulation): decreased
permeated through the skin as (in gel formulation): mono-substituted prodrug (ALL00150) only
total skin concentrations compared to cannabidiol (in gel formulation): higher

C=C(C)C1CCC(C)=CC1c1c(OC(=O)CN(C)C)cc(CCCCC)cc1OC(=O)CN(C)C (stereo not drawn) [ALL00105, CBD bis(N,N-dimethylglycinate)]
30 h cumulative amt [4]: 6.9 ± 0.0 nmol
30 h skin conc [4]: 30.0 ± 0.0 µmol/g
Flux [4]: 0.6 ± 0.0 nmol/cm^2/h
Lag time [4]: 18.6 ± 0.0 h
30 h cumulative amt [5]: 15.4 ± 0.0 nmol
30 h skin conc [5]: 40.2 ± 0.0 µmol/g
Flux [5]: 1.0 ± 0.0 nmol/cm^2/h
Lag time [5]: 13.0 ± 0.0 h
30 h cumulative amt [6]: 22.3 ± 0.0 nmol
30 h skin conc [6]: 70.2 ± 0.0 µmol/g
Flux [6]: 1.6 ± 0.0 nmol/cm^2/h
Lag time [6]: 15.2 ± 0.0 h
Flux enhancement (Table 18, 90:8:2 PG:H2O:IPM donor solution, 40% aqueous PEG 400 receiver fluid): 0.19
detected in the skin as (in donor solution): mono-substituted prodrug, ALL00148, and cannabidiol
flux compared to cannabidiol (in donor solution): did not increase the flux
lag time compared to cannabidiol (in donor solution): not decreased
permeated through the skin as (in donor solution): mono-substituted prodrug (ALL00148) and cannabidiol
total skin concentrations compared to cannabidiol (in donor solution): higher

C=C(C)[C@@H]1CCC(C)=C[C@H]1c1c(O)cc(CCCCC)cc1O [cannabidiol, reference compound]
42 h cumulative amt [7]: 154.4 ± 39.5 nmol
42 h skin conc [7]: 19.0 ± 12.8 µmol/g
Flux [7]: 6.5 ± 0.7 nmol/cm^2/h
30 h cumulative amt [8]: 51.6 ± 9.1 nmol
30 h skin conc [8]: 10.5 ± 6.5 µmol/g
Flux [8]: 3.9 ± 0.2 nmol/cm^2/h
30 h cumulative amt [9]: 148.6 ± 54.0 nmol
30 h skin conc [9]: 21.2 ± 4.8 µmol/g
Flux [9]: 8.2 ± 2.6 nmol/cm^2/h
24 h cumulative amt [1]: 12.3 ± 8.1 nmol
24 h skin conc [1]: 9.0 ± 2.2 µmol/g
Flux [1]: 0.8 ± 0.4 nmol/cm^2/h
Lag time [1]: 8.5 ± 2.1 h
24 h cumulative amt [10]: 6.5 ± 3.8 nmol
24 h skin conc [10]: 15.6 ± 4.2 µmol/g
Flux [10]: 0.4 ± 0.2 nmol/cm^2/h
Lag time [10]: 5.3 ± 1.7 h
24 h skin conc (Table 22, anhydrous gel formulation, 40% aqueous PEG 400 receiver fluid, as applied compound (CBD or intact prodrug)): 3.3 ± 1.3 µmol/g
24 h cumulative amt [11]: 3.0 nmol
24 h skin conc [11]: 27.7 ± 24.6 µmol/g
Flux [11]: 0.29 nmol/cm^2/h
Lag time [11]: 12.8 h
concentrations in the skin, anhydrous gel formulation compared to the ethanol based gel formulation (anhydrous gel versus ethanol based gel): much lower
